Results published in US9120749B2, “Quinoline derivatives and MELK inhibitors containing the same” (ONCOTHERAPY SCIENCE, INC., priority 2010, dated 2015).
Structures can show the parent of a compound that is named as a salt. Where two headings read alike, the source gives them in different places.

Assays:
T47D cells = assay: Cell-based assay: anti-proliferative activity, Cell Counting Kit-8, 72 hours (T47D)
Summary of the method: (§1)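 Target-specific cytotoxicity: seeded cells treated with MELK inhibitor candidates for 72 h, proliferation quantified via CCK-8, IC50 fitted.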

A549 cells = assay: Cell-based assay: anti-proliferative activity, Cell Counting Kit-8, 72 hours (A549); conditions: 72 hours
Summary of the method: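 A549 cells were seeded in 96-well plates and exposed to candidate inhibitors for 72 hours. Cell growth was then measured with Cell Counting Kit-8, and IC50 values were calculated from the resulting growth data.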

DU4475 = assay: Cell-based assay: anti-proliferative activity, Cell Counting Kit-8, 72 hours (DU4475); conditions: Homo sapiens, DU-4475, DU4475 cells
MELK = MELK (Homo sapiens, UniProt Q14680); assay: Kinase assay: MELK activity, phosphorylation of FITC-labeled histone H3 peptide measured by IMAP fluorescence polarization; type: biochemical; conditions: read-out: IC50 (μM) (kinase assay)
Summary of the method: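 Polarization of fluorescence served as the signal for MELK turnover of FITC-conjugated histone H3 peptide. Binding solution quenched each reaction, and plates stood 0.5 hour at room temperature before reading.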

HT-1197 cells = assay: Cell-based assay: anti-proliferative activity, Cell Counting Kit-8, 72 hours (HT-1197, negative control without MELK expression); conditions: Homo sapiens, HT1197, 72 h, 72 hours
Summary of the method: as §1

22Rv1 cells = assay: Cell-based assay: anti-proliferative activity, Cell Counting Kit-8, 72 hours (22Rv1); conditions: Homo sapiens
DU4475 cells = assay: Cell-based assay: anti-proliferative activity, Cell Counting Kit-8, 72 hours (DU4475); conditions: Homo sapiens, DU-4475
[1] = HT1197 cells (negative control, no MELK expression)
[2] = HT1197 cells (negative control)
[3] = MELK kinase assay, IMAP fluorescence polarization, 50 micro-M ATP

Sequence of MELK (Q14680 whole entry, looked up): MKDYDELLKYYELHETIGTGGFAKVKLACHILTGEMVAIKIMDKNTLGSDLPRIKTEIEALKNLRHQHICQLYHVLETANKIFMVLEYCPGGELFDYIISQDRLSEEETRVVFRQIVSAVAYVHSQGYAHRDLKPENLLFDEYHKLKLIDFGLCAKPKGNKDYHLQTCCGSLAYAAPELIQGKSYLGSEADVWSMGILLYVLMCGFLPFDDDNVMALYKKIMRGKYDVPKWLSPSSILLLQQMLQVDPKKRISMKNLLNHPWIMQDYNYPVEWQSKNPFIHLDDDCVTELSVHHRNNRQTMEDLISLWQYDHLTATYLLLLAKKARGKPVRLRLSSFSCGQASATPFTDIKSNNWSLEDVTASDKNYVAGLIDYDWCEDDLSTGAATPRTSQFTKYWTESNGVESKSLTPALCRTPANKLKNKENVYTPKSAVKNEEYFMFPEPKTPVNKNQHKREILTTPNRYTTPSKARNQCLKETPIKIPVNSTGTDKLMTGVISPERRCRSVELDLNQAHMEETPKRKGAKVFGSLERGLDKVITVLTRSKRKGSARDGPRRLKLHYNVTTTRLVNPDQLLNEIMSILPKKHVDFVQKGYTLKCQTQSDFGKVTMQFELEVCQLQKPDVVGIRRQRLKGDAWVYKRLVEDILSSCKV

| IC50 (22Rv1 cells) | SMILES | IC50 (T47D cells; Homo sapiens, T47D, 72 h) | IC50 (A549 cells; Homo sapiens, A549, 72 h) | IC50 (DU4475) | IC50 (MELK) | IC50 (HT-1197 cells; [1]) | IC50 (T47D cells; 72 hours) | IC50 (A549 cells) | IC50 (HT-1197 cells; [2]) | IC50 (DU4475 cells) | IC50 (MELK; [3]) |
| --- | --- | --- | --- | --- | --- | --- | --- | --- | --- | --- | --- |
| – | O=C(c1cnc2ccc(-c3cc(Cl)c(O)c(Cl)c3)cc2c1-c1ccc(OCCN2CCCC2)cc1)C1CC1 [Example 485, cyclopropyl(6-(3,5-dichloro-4-hydroxyphenyl)-4-(4-(2-(pyrrolidin-1-yl)ethoxy)phenyl)quinolin-3-yl)methanone] | 0.77 µM | 1.2 µM | 1.2 µM | 0.0056 µM | 10 µM | – | – | – | – | – |
| – | CCOc1cc(-c2ccc3ncc(C(C)=O)c(N[C@H]4CC[C@H](N)CC4)c3c2)cc(Cl)c1O [Example 486] | 0.15 µM | 0.11 µM | 0.13 µM | 0.0021 µM | 2.2 µM | – | – | – | – | – |
| – | CC(=O)c1cnc2ccc(-c3cc(F)c(O)c(Cl)c3)cc2c1Nc1ccc(N2CCN(C)CC2)nc1 [Example 487, 1-(6-(3-Chloro-5-fluoro-4-hydroxyphenyl)-4-(6-(4-methylpiperazin-1-yl)pyridin-3-ylamino)quinolin-3-yl)ethanone] | – | – | 0.1 µM | 0.01 µM | 1.4 µM | 0.041 µM | 0.088 µM | – | – | – |
| – | O=C(c1cnc2ccc(-c3cc(F)c(O)c(Cl)c3)cc2c1Nc1ccc(Cn2ccnc2)cc1)C1CC1 [Example 489, (4-(4-((1H-imidazol-1-yl)methyl)phenylamino)-6-(3-chloro-5-fluoro-4-hydroxyphenyl)quinolin-3-yl)(cyclopropyl)methanone] | 1.1 µM | 1.4 µM | 0.97 µM | 0.019 µM | 5.1 µM | – | – | – | – | – |
| – | COc1cc(-c2ccc3ncc(C(=O)C4CC4)c(Nc4ccc(Cn5ccnc5)cc4)c3c2)cc(Cl)c1O [Example 490, (4-(4-((1H-imidazol-1-yl)methyl)phenylamino)-6-(3-chloro-4-hydroxy-5-methoxyphenyl)quinolin-3-yl)(cyclopropyl)methanone] | 0.78 µM | 0.68 µM | 0.86 µM | 0.014 µM | 5.8 µM | – | – | – | – | – |
| – | C[S+]([O-])c1cnc2ccc(-c3cc(Cl)c(O)c(Cl)c3)cc2c1N[C@H]1CC[C@H](N)CC1 (stereo partly drawn) [Example 491] | 7 µM | 10 µM | 2.9 µM | 0.0075 µM | 10 µM | – | – | – | – | – |
| – | COc1cc(-c2ccc3ncc(C(=O)C4CC4)c(N[C@H]4CC[C@H](CN)CC4)c3c2)cc(Cl)c1O [Example 493, {4-[trans-4-(Aminomethyl)cyclohexylamino]-6-(3-chloro-4-hydroxy-5-methoxyphenyl)quinolin-3-yl}(cyclopropyl)methanone] | 0.078 µM | 0.095 µM | 0.068 µM | 0.003 µM | 0.82 µM | – | – | – | – | – |
| – | NC[C@H]1CC[C@H](Nc2c(C(=O)C3CC3)cnc3ccc(-c4cc(Cl)c(O)c(Cl)c4)cc23)CC1 [Example 495, {4-[trans-4-(Aminomethyl)cyclohexylamino]-6-(3,5-dichloro-4-hydroxyphenyl)quinolin-3-yl}(cyclopropyl)methanone] | 0.045 µM | 0.35 µM | 0.018 µM | 0.0029 µM | 3.9 µM | – | – | – | – | – |
| – | O=C(c1cnc2ccc(-c3cc(F)c(O)c(Cl)c3)cc2c1Nc1cnc(N2CCNCC2)nc1)C1CC1 [Example 496, (6-(3-chloro-5-fluoro-4-hydroxyphenyl)-4-((2-(piperazin-1-yl)pyrimidin-5-yl)amino)quinolin-3-yl)(cyclopropyl)methanone] | 0.036 µM | 0.079 µM | 0.068 µM | 0.0048 µM | 0.64 µM | – | – | – | – | – |
| – | O=C(c1cnc2ccc(-c3cc(Cl)c(O)c(Cl)c3)cc2c1Nc1cnc(N2CCNCC2)nc1)C1CC1 [Example 497, cyclopropyl(6-(3,5-dichloro-4-hydroxyphenyl)-4-((2-(piperazin-1-yl)pyrimidin-5-yl)amino)quinolin-3-yl)methanone] | 0.052 µM | 0.12 µM | 0.056 µM | 0.0021 µM | 0.97 µM | – | – | – | – | – |
| – | C[S+]([O-])c1cnc2ccc(-c3cc(F)c(O)c(Cl)c3)cc2c1N[C@H]1CC[C@H](N)CC1 (stereo partly drawn) [Example 498] | 10 µM | 10 µM | 2.8 µM | 0.046 µM | 10 µM | – | – | – | – | – |
| – | C[S+]([O-])c1cnc2ccc(-c3ccc(O)c(Cl)c3)cc2c1N[C@H]1CC[C@H](N)CC1 (stereo partly drawn) [Example 499] | 2.7 µM | 9.7 µM | 2.5 µM | 0.036 µM | 18 µM | – | – | – | – | – |
| – | NC[C@H]1CC[C@H](Nc2c(C(=O)C3CC3)cnc3ccc(-c4cc(F)c(O)c(Cl)c4)cc23)CC1 [Example 501, {4-[trans-4-(Aminomethyl)cyclohexylamino]-6-(3-chloro-5-fluoro-4-hydroxyphenyl)quinolin-3-yl}(cyclopropyl)methanone] | 0.061 µM | 0.57 µM | 0.031 µM | 0.046 µM | 1.2 µM | – | – | – | – | – |
| – | COc1cc(-c2ccc3ncc(C(=O)C(C)C)c(N[C@H]4CC[C@H](N)CC4)c3c2)cc(Cl)c1O [Example 502, 1-(4-((trans-4-aminocyclohexyl)amino)-6-(3-chloro-4-hydroxy-5-methoxyphenyl)quinolin-3-yl)-2-methylpropan-1-one] | 0.045 µM | 0.1 µM | 0.041 µM | 0.007 µM | 0.31 µM | – | – | – | – | – |
| – | COc1cc(-c2ccc3ncc(C(=O)C4CC4)c(Nc4cnc(N5CCNCC5)nc4)c3c2)cc(Cl)c1O [Example 503, (6-(3-chloro-4-hydroxy-5-methoxyphenyl)-4-(2-(piperazin-1-yl)pyrimidin-5-ylamino)quinolin-3-yl)(cyclopropyl)methanone] | 0.24 µM | 0.37 µM | 0.46 µM | 0.0047 µM | 1.1 µM | – | – | – | – | – |
| – | NCc1ccc(Nc2c(C(=O)C3CC3)cnc3ccc(-c4cc(F)c(O)c(Cl)c4)cc23)cc1 [Example 504, {4-[4-(Aminomethyl)phenylamino]-6-(3-chloro-5-fluoro-4-hydroxyphenyl)quinolin-3-yl}(cyclopropyl)methanone] | 0.084 µM | 0.081 µM | 0.019 µM | 0.0089 µM | 0.71 µM | – | – | – | – | – |
| – | COc1cc(-c2ccc3ncc(C(=O)C4CC4)c(Nc4ccc(CN)cc4)c3c2)cc(Cl)c1O [Example 506, (4-(4-(aminomethyl)phenylamino)-6-(3-chloro-4-hydroxy-5-methoxyphenyl)quinolin-3-yl)(cyclopropyl)methanone] | 0.15 µM | 0.18 µM | 0.13 µM | 0.0032 µM | 0.74 µM | – | – | – | – | – |
| – | NCc1ccc(Nc2c(C(=O)C3CC3)cnc3ccc(-c4cc(Cl)c(O)c(Cl)c4)cc23)cc1 [Example 507, {4-[4-(Aminomethyl)phenylamino]-6-(3,5-dichloro-4-hydroxyphenyl)quinolin-3-yl}(cyclopropyl)methanone] | 0.094 µM | 0.059 µM | 0.018 µM | 0.0038 µM | 0.58 µM | – | – | – | – | – |
| 0.3 µM | CCN(CC)CCO[C@H]1CC[C@H](Nc2c(C(C)=O)cnc3ccc(-c4cc(Cl)c(O)c(Cl)c4)cc23)CC1 [Example 868, 1-(6-(3,5-dichloro-4-hydroxyphenyl)-4-((1R,4R)-4-(2-(diethylamino)ethoxy)cyclohexyl)amino)quinolin-3-yl)ethanone hydrochloride] | 0.14 µM | 0.28 µM | – | – | – | – | – | 2.8 µM | 0.29 µM | – |
| – | CC(=O)c1cnc2ccc(-c3cc(Cl)c(O)c(Cl)c3)cc2c1Nc1cncc(CCN2CCCC2)c1 [Example 873, 1-(6-(3,5-dichloro-4-hydroxyphenyl)-4-((5-(2-(pyrrolidin-1-yl)ethyl)pyridin-3-yl)amino)quinolin-3-yl)ethanone hydrochloride] | 100 µM | 0.35 µM | – | – | – | – | – | 100 µM | 0.17 µM | 0.0067 µM |
| – | O=C(c1cnc2ccc(-c3cc(Cl)c(O)c(Cl)c3)cc2c1Nc1cncc(CCN2CCCC2)c1)C1CC1 [Example 881, cyclopropyl(6-(3,5-dichloro-4-hydroxyphenyl)-4-((5-(2-(pyrrolidin-1-yl)ethyl)pyridin-3-yl)amino)quinolin-3-yl)methanone] | 100 µM | 0.15 µM | – | – | – | – | – | 100 µM | 0.078 µM | 0.0064 µM |
| – | CC(=O)c1cnc2ccc(-c3cc(Cl)c(O)c(Cl)c3)cc2c1Nc1ccc(S(=O)(=O)N2CCN(C)CC2)cc1 [Example 887, 1-(6-(3,5-dichloro-4-hydroxyphenyl)-4-((4-((4-methylpiperazin-1-yl)sulfonyl)phenyl)amino)quinolin-3-yl)ethanone hydrochloride] | 1.3 µM | 100 µM | – | – | – | – | – | 100 µM | 100 µM | – |
| – | CC(=O)c1cnc2ccc(-c3cc(F)c(O)c(Cl)c3)cc2c1Nc1ccc(S(=O)(=O)N2CCN(C)CC2)cc1 [Example 894, 1-(6-(3-chloro-5-fluoro-4-hydroxy-phenyl)-4-((4-((4-methylpiperazin-1-yl)sulfonyl)phenyl)amino)quinolin-3-yl)ethanone hydrochloride] | 1.5 µM | 100 µM | – | – | – | – | – | 63 µM | 100 µM | 0.039 µM |
